Test results: ChEMBL document CHEMBL1201862, “PubChem BioAssay data set” (2004)
The source made the active and inactive calls.

Experiments:
[1] = P. falciparum 3D7-ScDHODH growth inhibitors, dose response, SYBR Green, dry powder samples (AID 1159570); format: functional, cell-based;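 note: parasite growth measured after 72 hours of compound exposure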
[2] = HepG2 cell cytotoxicity, dose response, cytotoxicity control, plate reader, dry powder samples (AID 1159569); format: functional, cell-based;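 note: inhibitor potency with signal falling toward the positive control level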
[3] = P. falciparum Dd2 growth inhibitors, dose response, SYBR Green, cherry-picked samples (AID 1159567); format: functional, cell-based
[4] = P. falciparum Dd2 growth inhibitors, dose response, SYBR Green, dry powder samples (AID 1159566); format: functional, cell-based;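 note: potency for growth inhibition with lower SYBR green DNA signal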
[5] = P. falciparum ATP4 D1247Y mutant growth inhibitors, dose response, NITD609-resistant line, SYBR Green, dry powder (AID 1159571); format: functional, cell-based;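 note: parasites synchronized at ring stage by sorbitol before testing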
[6] = biological target: Disintegrin and metalloproteinase domain-containing protein 17 (Homo sapiens, UniProt P78536); test: exosite inhibitors of ADAM17, dose response, biochemical (AID 743260)
[7] = ADAM10 protease inhibitors, dose response, selectivity assay for ADAM17 exosite inhibitor project, biochemical, FRET peptide substrate, recombinant human ADAM10 (AID 743259);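 note: ADAM10 enzyme cleaving a FRET peptide substrate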
fMet-Leu-Phe receptor = fMet-Leu-Phe receptor (Homo sapiens, UniProt P21462); test: FPR ligands, dose response (AID 519); format: functional
HEK293 = test: HEK293T cell cytotoxicity, dose response, cytotoxicity control, ATP luminescence, cherry-pick samples (AID 687005); format: functional, cell-based; conditions: Homo sapiens;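 note: cells exposed to compound for 48 hours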
[8] = HEK293 Cytotoxicity Assay Measured in Cell-Based System Using Plate Reader - 7071-01_Inhibitor_Dose_CherryPick_Activity_Set2.; format: functional
[9] = MITF Orthogonal Assay: SK-MEL-5 CTG Assay Measured in Cell-Based System Using Plate Reader - 2084-02_Inhibitor_Dose_DryPowder_Activity_Set7.; format: functional
[10] = MITF: Counter assay: A375 proliferation Measured in Cell-Based System Using Plate Reader - 2084-03_Inhibitor_Dose_DryPowder_Activity_Set8.; format: functional; conditions: A-375
[11] = TRPM1 promoter luciferase reporter signal decrease, dose response, MITF inhibitor project, cell-based, SK-MEL-5, dry powder, set 8 (AID 624430); format: functional
Paired box protein Pax-8 = Paired box protein Pax-8 (Homo sapiens, UniProt Q06710); test: inhibitors of PAX8-driven TPO luciferase reporter, dose response, RMG-I cells, cherry-pick (AID 687027); format: functional, cell-based;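 note: luciferase reporter driven by Pax8 target thyroperoxidase promoter measured by SteadyGlo luminescence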
[12] = A2780 ovarian cancer cell cytotoxicity, dose response, cytotoxicity control, plate reader, dry powder samples (AID 743046); format: functional, cell-based
[13] = cytotoxicity in OVCAR8 ovarian cancer cells, dose response, PAX8 project, cell-based, plate reader, dry powder samples (AID 743197); format: functional; conditions: OVCAR-8
[14] = Concentration-dependent survival of SW480 colon cancer line, luminescence detection with CellTiter-Glo, half-maximal inhibitory concentration (AID 1117338); format: functional
[15] = RKO cell viability reduction, dose response, CellTiter-Glo luminescence (AID 1117322); format: functional
[16] = cytotoxicity toward HCT116 cells – cell-based, CellTiter-Glo luminescence, IC50, dose response (AID 1117332); format: functional; conditions: HCT-116
[17] = SNU-C1 cell viability reduction, dose response, CellTiter-Glo luminescence (AID 1117323); format: functional, cell-based
[18] = cytotoxicity toward Colo320 cells – cell-based, CellTiter-Glo luminescence, IC50, dose response (AID 1117334); format: functional; conditions: COLO 320
[19] = cytotoxicity toward HT-29 cells – cell-based, CellTiter-Glo luminescence, IC50, dose response (AID 1117330); format: functional
[20] = CellTiter-Glo luminescent dose response of DLD-1 viability loss (AID 1117352); format: functional
BJ [21] = test: cytotoxicity toward BJ-TERT fibroblasts, dose response, cell-based, RAS-independent, luminescence (AID 1933); format: functional; conditions: Homo sapiens
BJ [22] = test: cells; format: functional, cell-based; conditions: Homo sapiens
BJ [23] = test: cytotoxicity toward BJ-TERT-LT-ST fibroblasts, dose response, cell-based, RAS-independent, luminescence (AID 1935); format: functional; conditions: Homo sapiens;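 note: BJ fibroblasts immortalized with TERT plus LT and ST oncogenes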
[24] = cytotoxicity toward DRD oncogenic fibroblasts, dose response, cell-based, non-viral oncogenic, luminescence (AID 1934); format: functional; conditions: Homo sapiens
cells [25] = conditions: A549
cells [26] = conditions: HEK293;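 note: cells exposed to compound for 48 hours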
[27] = M. tuberculosis H37Rv growth inhibitors, H37Rv strain (AID 1626); format: functional
H9c2 = test: cells; format: functional, cell-based; conditions: Rattus norvegicus, H9c2, Myocardium;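 note: confirmatory concentration-response retest of ultra-high-throughput screening hits for modulation of myocardial damage; cell death induced by hydrogen peroxide oxidative stress; compound pretreatment for 60 min then peroxide exposure for 2 h; potency is for protecting the cells against peroxide damage rather than for killing them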
[28] = Artemis endonuclease inhibitor potency, dose response, biochemical, fluorescence intensity (AID 720701); format: functional;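 note: Artemis endonuclease enzyme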
[29] = Late stage results for the probe development effort to identify inhibitors of Plasmodium falciparum gametocytes: Luminescence-based cell-based high throughput dose response assay to identify inhibitors of viability of late stage Plasmodium falciparum gametocytes.; format: functional
[30] = biological target: Potassium channel subfamily K member 9 (Homo sapiens, UniProt Q9NPC2); test: TASK3 (KCNK9) channel inhibitors, thallium flux, SAR follow-up, selectivity assay for TASK1 inhibitor project, cell-based, FluxOR thallium flux, concentration-response (AID 652211); format: functional;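 note: potency is for inhibitors of the channel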
[31] = biological target: Potassium channel subfamily K member 3 (Rattus norvegicus, UniProt O54912); test: SAR analysis for the identification of selective inhibitors of the two-pore domain potassium channel TASK1(KCNK3):Automated Electrophysiology.; format: functional
[32] = biological target: Potassium channel subfamily K member 3 (Homo sapiens, UniProt O14649); test: TASK1 (KCNK3) potassium channel inhibitors, SAR follow-up, CHO cells, FluxOR thallium flux (AID 652212); format: functional
Potassium channel subfamily K member 3 (Homo sapiens, UniProt O14649), sequence (O14649 whole entry): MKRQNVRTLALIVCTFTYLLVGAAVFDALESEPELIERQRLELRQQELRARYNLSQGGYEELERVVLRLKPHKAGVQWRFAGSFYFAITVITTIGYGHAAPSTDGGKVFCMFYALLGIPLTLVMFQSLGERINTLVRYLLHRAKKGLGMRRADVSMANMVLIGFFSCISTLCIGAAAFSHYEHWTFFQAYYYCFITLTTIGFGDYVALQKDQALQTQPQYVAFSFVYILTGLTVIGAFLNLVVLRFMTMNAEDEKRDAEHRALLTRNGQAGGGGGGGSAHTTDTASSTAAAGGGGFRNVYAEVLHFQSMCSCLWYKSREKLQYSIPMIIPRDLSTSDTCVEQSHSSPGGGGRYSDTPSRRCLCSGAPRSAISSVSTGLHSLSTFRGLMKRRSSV

Potassium channel subfamily K member 3 (Rattus norvegicus, UniProt O54912), sequence (O54912 whole entry, the tested form may be a part): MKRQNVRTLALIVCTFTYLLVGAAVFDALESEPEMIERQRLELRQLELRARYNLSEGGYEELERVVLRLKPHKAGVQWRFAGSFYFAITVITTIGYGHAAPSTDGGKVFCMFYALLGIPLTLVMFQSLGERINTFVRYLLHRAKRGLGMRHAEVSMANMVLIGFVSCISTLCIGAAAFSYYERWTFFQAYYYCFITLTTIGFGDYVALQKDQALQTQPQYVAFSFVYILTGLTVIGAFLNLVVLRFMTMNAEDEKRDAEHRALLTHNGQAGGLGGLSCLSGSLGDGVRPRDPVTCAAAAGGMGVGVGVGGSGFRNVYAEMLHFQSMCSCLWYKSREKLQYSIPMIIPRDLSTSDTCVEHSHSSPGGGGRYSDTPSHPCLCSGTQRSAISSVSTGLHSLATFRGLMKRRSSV
Disintegrin and metalloproteinase domain-containing protein 17, sequence (P78536 whole entry, the tested form may be a part): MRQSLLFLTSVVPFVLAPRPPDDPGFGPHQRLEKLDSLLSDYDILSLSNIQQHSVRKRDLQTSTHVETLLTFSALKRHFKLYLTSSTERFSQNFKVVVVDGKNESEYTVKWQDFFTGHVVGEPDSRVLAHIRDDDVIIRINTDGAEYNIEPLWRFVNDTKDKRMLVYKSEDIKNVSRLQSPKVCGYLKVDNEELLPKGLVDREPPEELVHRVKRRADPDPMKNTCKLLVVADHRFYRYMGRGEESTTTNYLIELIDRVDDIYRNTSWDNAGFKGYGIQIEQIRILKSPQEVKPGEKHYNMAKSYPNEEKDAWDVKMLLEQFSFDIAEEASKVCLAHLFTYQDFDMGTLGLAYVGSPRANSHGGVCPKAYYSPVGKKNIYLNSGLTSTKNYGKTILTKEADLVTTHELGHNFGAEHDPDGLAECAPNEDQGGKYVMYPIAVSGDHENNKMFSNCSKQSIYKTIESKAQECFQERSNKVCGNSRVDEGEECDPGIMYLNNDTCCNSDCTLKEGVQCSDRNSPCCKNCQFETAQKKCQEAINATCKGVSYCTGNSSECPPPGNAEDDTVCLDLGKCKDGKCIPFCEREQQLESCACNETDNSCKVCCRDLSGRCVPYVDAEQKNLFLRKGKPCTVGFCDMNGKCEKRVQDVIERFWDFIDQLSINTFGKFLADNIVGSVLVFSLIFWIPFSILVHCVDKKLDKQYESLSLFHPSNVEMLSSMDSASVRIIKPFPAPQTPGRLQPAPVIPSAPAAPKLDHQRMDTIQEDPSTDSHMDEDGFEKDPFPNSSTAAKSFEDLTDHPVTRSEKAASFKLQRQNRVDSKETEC
fMet-Leu-Phe receptor, sequence (P21462 whole entry): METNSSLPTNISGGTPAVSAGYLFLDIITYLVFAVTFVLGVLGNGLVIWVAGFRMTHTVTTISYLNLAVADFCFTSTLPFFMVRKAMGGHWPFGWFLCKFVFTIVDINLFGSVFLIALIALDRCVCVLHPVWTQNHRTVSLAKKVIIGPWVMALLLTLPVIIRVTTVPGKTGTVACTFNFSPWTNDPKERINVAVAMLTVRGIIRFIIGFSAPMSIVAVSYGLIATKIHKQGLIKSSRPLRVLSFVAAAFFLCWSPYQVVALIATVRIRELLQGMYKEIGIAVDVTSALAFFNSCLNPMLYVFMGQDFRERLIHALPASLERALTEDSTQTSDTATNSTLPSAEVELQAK
Potassium channel subfamily K member 9, sequence (Q9NPC2 whole entry, the tested form may be a part): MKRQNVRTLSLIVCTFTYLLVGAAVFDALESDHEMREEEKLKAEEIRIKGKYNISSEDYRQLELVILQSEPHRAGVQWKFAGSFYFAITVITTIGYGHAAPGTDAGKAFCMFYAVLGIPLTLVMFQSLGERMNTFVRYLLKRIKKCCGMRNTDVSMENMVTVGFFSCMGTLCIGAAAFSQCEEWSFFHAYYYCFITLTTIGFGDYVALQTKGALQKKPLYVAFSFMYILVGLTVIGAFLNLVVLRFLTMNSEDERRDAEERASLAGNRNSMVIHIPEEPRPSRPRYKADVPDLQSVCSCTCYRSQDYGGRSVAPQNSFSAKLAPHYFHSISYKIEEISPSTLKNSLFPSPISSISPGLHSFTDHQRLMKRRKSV
Paired box protein Pax-8, sequence (Q06710 whole entry): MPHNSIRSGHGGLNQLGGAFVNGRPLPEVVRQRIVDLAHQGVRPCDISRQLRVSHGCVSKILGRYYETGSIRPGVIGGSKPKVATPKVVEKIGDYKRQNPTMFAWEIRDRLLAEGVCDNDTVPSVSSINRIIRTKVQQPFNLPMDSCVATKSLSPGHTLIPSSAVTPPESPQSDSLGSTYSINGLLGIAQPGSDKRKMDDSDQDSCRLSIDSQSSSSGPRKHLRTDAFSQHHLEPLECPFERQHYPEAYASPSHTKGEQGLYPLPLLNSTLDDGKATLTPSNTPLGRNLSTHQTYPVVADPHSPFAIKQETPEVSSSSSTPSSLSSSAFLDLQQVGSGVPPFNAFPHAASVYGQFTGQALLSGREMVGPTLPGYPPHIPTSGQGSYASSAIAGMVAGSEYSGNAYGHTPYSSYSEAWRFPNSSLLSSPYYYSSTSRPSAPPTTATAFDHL

Question: Which results are given for `COc1ccc(S(=O)(=O)N2CCC3(CC2)CN(Cc2ccncc2)[C@@H](CO)c2[nH]c4cc(OC)ccc4c23)cc1`?
Answer: AC50 [1]: 1.41 µM (active); AC50 [2]: 22.9 µM (active); AC50 [3]: 2.29 µM (active); AC50 [4]: 1.17 µM (active); AC50 [5]: 1.67 µM (active)

Question: What does the source list for `COc1ccc(NC(=O)Nc2ccc3c(c2)C(=O)N([C@@H](C)CO)C[C@@H](C)[C@@H](CN(C)S(=O)(=O)c2cccs2)O3)cc1`?
Answer: IC50 [6]: > 69.5 µM (inactive); IC50 [7]: > 7.72 µM (active)

Question: Which Ki (fMet-Leu-Phe receptor) does the source give for `CCOc1cccc(C(=O)C2=C(O)C(=O)N(Cc3cccnc3)C2c2ccco2)c1` (stereo unspecified) here?
Answer: The Ki was > 66.7 µM (inactive).

Question: Which AC50 (HEK293) does the source give for `CN1[C@@H]2c3ccc(-c4cccnc4)c(=O)n3C[C@@H]2[C@@H](CO)[C@@H]1C(=O)N1CCc2ccccc2C1` here?
Answer: Its AC50 is > 52 µM (inactive).

Question: What about the AC50 [8] of the same compound?
Answer: The AC50 was > 52 µM (inactive).

Question: With `CCN1CCN(C2=C(Nc3ccc(Br)cc3)C(=O)c3ccccc3C2=O)CC1` as the compound, how does the AC50 [9] read?
Answer: Its AC50 is 8.61 µM (active).

Question: And the AC50 [10]?
Answer: Its AC50 is 29.3 µM (active).

Question: And the AC50 [11]?
Answer: Its AC50 is 10.7 µM (active).

Question: With `C[C@@H]1CN([C@@H](C)CO)C(=O)c2cc(NC(=O)Nc3ccc(C(F)(F)F)cc3)ccc2O[C@@H](C)CCCCO[C@@H]1CN(C)Cc1ccc2c(c1)OCO2` as the compound, how does the AC50 (Paired box protein Pax-8) read?
Answer: The AC50 was 5.64 µM (active).

Question: And the AC50 [12]?
Answer: The AC50 was 56.1 µM (active).

Question: And the AC50 [13]?
Answer: The AC50 was 57.3 µM (active).

Question: For `CCn1cc(C(=O)O)c(=O)c2cnc(N3CCNCC3)nc21` [PIPEMIDIC ACID], which IC50 [14] is on record?
Answer: The IC50 was > 20 µM (inactive).

Question: What about the IC50 [15] of the same compound?
Answer: Its IC50 is > 20 µM (inactive).

Question: What about the IC50 [16] of the same compound?
Answer: Its IC50 is > 20 µM (inactive).

Question: What about the IC50 [17] of the same compound?
Answer: Its IC50 is > 20 µM (inactive).

Question: And the IC50 [18]?
Answer: The IC50 was > 20 µM (inactive).

Question: And the IC50 [19]?
Answer: Its IC50 is > 20 µM (inactive).

Question: And the IC50 [20]?
Answer: Its IC50 is > 20 µM (inactive).

Question: For `CN(C)C(=O)CSc1nc2cc(C(=O)c3ccccc3)ccc2[nH]1`, which EC50 (BJ [21]) is on record?
Answer: The EC50 was > 150 µM (not active).

Question: And the EC50 (BJ [22])?
Answer: The EC50 was 14.3 µM (inconclusive).

Question: And the EC50 (BJ [23])?
Answer: The EC50 was > 150 µM (inconclusive).

Question: What about the EC50 [24] of the same compound?
Answer: The EC50 was > 150 µM (not active).

Question: And the AC50 (cells [25])?
Answer: The AC50 was 35.9 µM (active).

Question: And the AC50 (cells [26])?
Answer: The AC50 was 29.9 µM (active).

Question: What does the source list for `COc1ccc(-c2nn(-c3ccccc3)cc2C(=O)Nc2nccs2)cc1`?
Answer: IC50 [27]: > 100 µM (active); IC50 (H9c2): > 79 µM (inactive); IC50 [28]: 9.49 µM (active); IC50 [29]: > 74.4 µM (inactive)

Question: For `CCOc1ccccc1NC(=O)c1cccc(NC(=O)C2CCCC2)c1`, which IC50 [30] is on record?
Answer: The IC50 was 1.84 µM (active).

Question: What about the IC50 [31] of the same compound?
Answer: Its IC50 is 123 nM (active).

Question: What about the IC50 [32] of the same compound?
Answer: Its IC50 is 54 nM (active).
